Results: patent US20140349989A1, “COMPOUNDS AND THERAPEUTIC USES THEREOF” (Alzheimer's Institute of America, priority 2011, published 2014)
Where two headings read alike, the source gives them in different places.

What was measured:
Human NAMPT = biological target: T1, Human NAMPT (Homo sapiens, UniProt P43490); experiment: Nampt Activity Assay (coupled enzyme fluorometric, resazurin/diaphorase); format: biochemical; settings: His-tagged human NAMPT, 3 μM NAM, 8 μM PRPP, room temperature up to 3 hours; read-out: in vitro IC50 (Nampt catalytic activity)
T1 construct: 6xHis (N); made in house; host or cells: E. coli BL21-AI
Excerpt: 5-phosphoribosyl-1-pyrophosphate (PRPP), ATP, NaM, NaMN, Triton X-100, UDP-glucose and diaphorase were purchased from Sigma-Aldrich, St. Louis, Mo. Human NAMPT, NMN adenylyltransferase (NMNAT1) and UDP-glucose dehydrogenase (UGDH) encoding DNAs were each inserted into a house-modified E. Coli expression vector such that the expressed proteins carried an N-terminal 6×His tag. The His-tagged proteins were expressed in the BL21-AI E. Coli expression strain (Invitrogen Corporation, Carlsbad, Calif.) following induction by 0.2% L-arabinose and 0.5 mM IPTG at 30° C. Proteins were purified on Ni-NTA resin (Qiagen, Germantown, Md.).
The assay for Nampt catalytic activity was constructed based on a previously published coupled enzyme fluorometric technique, which employs NADH as ultimate analyte (Revollo, J. R. et al. Biol. Chem. 279, 50754-50763 (2004)). A substantial improvement in assay sensitivity was achieved by switching from direct detection to a resazurin/diaphorase-based fluorometric detection system for NADH (Guilbault, G. G., and Kramer, D. N. Anal. Chem. 37, 1219-1221 (1965)). The standard inhibition analyses were performed in a real-time mode in 96-well microtiter plates using 50 mM Tris-HCl, pH 7.5, 1% DMSO (v/v), 0.01% Triton X-100 (v/v), 10 mM MgCl2, 2 mM ATP, 3 μM NAM, 8 μM PRPP, […], as well as the following detection reagents: 5 nM Nmnat, 200 nM Ugdh, 200 μM UDP-glucose, 0.02 U/mL diaphorase and 0.25 μM resazurin. Incubation of samples at room temperature for up to 3 hours was followed by quantification of fluorescence intensities at excitation and emission wavelengths of 510 nm and 590 nm, respectively, using Gemini XS plate reader (Molecular Devices, Sunnyvale, Calif.). The counter-assay intended to disqualify false positives, such as inhibitors of detection enzymes or fluorescence quenchers, was carried out essentially as described above with an exception that 1 μM NaMN was substituted for Nampt.

[1] = Cytotoxicity Assay (HCT116, CellTiter-Glo); format: cell-based; settings: human
Summary of the method: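 Cells settled overnight, then exposed to compound in DMSO for 72 h, optionally with nicotinic acid (10 μM final) added alongside. Viability read as CellTiter-Glo luminescence.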

[2] = HCT116 cells, 72 hours drug incubation, CellTiter-Glo luminescence, read-out: HCT116 cell cytotoxicity IC50

T1 sequence (P43490 whole entry): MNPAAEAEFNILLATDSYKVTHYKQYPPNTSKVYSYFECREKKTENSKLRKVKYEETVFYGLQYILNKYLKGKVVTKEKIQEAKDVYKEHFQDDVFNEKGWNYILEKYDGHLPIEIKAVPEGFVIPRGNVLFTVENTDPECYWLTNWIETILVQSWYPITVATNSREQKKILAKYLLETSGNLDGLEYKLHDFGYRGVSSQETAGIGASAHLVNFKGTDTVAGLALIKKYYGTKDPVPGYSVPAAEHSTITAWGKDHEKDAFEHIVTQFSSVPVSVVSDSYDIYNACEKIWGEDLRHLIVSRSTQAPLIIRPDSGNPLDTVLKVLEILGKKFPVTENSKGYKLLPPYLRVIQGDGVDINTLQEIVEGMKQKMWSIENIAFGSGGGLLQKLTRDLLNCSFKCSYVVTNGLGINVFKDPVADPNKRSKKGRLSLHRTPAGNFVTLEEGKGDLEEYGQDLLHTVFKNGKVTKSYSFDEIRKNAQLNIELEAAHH

| IC50 (Human NAMPT) | Structure (SMILES) | IC50 at 72 h ([1]; HCT116 cell cytotoxicity IC50) | IC50 at 72 h [1, 2] |
| --- | --- | --- | --- |
| < 1 nM | O=C(NCc1cccnc1)Nc1ccc(-c2nn(C3CN(C4CCCC4)C3)c3ccccc23)cc1 [Compound 33, 1-{4-[1-(1-Cyclopentyl-azetidin-3-yl)-1H-indazol-3-yl]phenyl}-3-(pyridin-3-ylmethyl)urea] | ~1 nM | < 100 nM |
| ~3 nM | O=C(/C=C/c1ccc(-n2nc(C(=O)N3CC(N4CCOCC4)C3)c3ccccc32)cc1)NCc1cccnc1 [Compound 169, (2E)-3-[4-(3-{[3-(Morpholin-4-yl)azetidin-1-yl]carbonyl}-1H-indazol-1-yl)phenyl]-N-(pyridin-3-ylmethyl)prop-2-enamide] | ~10 nM | < 100 nM |
| ~2 nM | Cc1c(-c2ccccc2)c(C(=O)O)nn1-c1ccc(NC(=O)NCc2cccnc2)cc1 [Compound 119, 5-Methyl-4-phenyl-1-(4-{[(pyridin-3-ylmethyl)carbamoyl]amino}phenyl)-1H-pyrazole-3-carboxylic acid] |  |  |
| ~1 nM | O=C(NCc1cccnc1)Nc1ccc(-n2cc(C(=O)N3CC(N4CCNCC4)C3)c3ccccc32)cc1 [Compound 15, 1-[4-(3-{[3-(Piperazin-1-yl)azetidin-1-yl]carbonyl}-1H-indol-1-yl)phenyl]-3-(pyridin-3-ylmethyl)urea] | ~60 nM |  |
| < 1 nM | CC(C)N1CCC2(CC1)CN(c1ccc(NC(=O)NCc3cccnc3)cc1)c1ccccc12 [Compound 61, 1-{4-[1′-(Propan-2-yl)spiro[indole-3,4′-piperidin]-1(2H)-yl]phenyl}-3-(pyridin-3-ylmethyl)urea] |  |  |
| ~1 nM | O=C(NCc1cccnc1)Nc1ccc(-n2cc(C3CCNCC3)c3ccccc32)cc1 [Compound 29, 1-[4-[3-(4-piperidyl)indol-1-yl]phenyl]-3-(3-pyridylmethyl)urea] |  |  |
| ~1 nM | O=C(NCc1cccnc1)Nc1ccc(-n2nc(N3CCN(C4CCCC4)CC3)c3ccccc32)cc1 [Compound 109, 1-{4-[3-(4-Cyclopentyl-piperazin-1-yl)-1H-indazol-1-yl]phenyl}-3-(pyridin-3-ylmethyl)urea] | ~1 nM | < 100 nM |
| ~1 nM | O=C(NCc1cccnc1)Nc1ccc(-n2cc(CCN3CCCC3)c3ccccc32)cc1 [Compound 78, 1-(Pyridin-3-ylmethyl)-3-(4-{3-[2-(pyrrolidin-1-yl)ethyl]-1H-indol-1-yl}phenyl)urea] | ~1 nM | < 100 nM |
| ~1 nM | O=C(/C=C/c1ccc(-n2cc(CCN3CCOCC3)c3ccccc32)cc1)NCc1cccnc1 [Compound 175, (2E)-3-(4-{3-[2-(Morpholin-4-yl)ethyl]-1H-indol-1-yl}phenyl)-N-(pyridin-3-ylmethyl)prop-2-enamide] | ~7 nM | < 100 nM |
| ~1 nM | O=C(NCc1cccnc1)Nc1ccc(-n2cc(C(=O)NCCCN3CCCC3)c3ccccc32)cc1 [Compound 4] | ~8 nM |  |
| ~10 nM | O=C(NCc1cccnc1)Nc1ccc(-n2ccc(C(=O)NCCN3CCCC3)n2)cc1 [Compound 1, 1-(4-{[(Pyridin-3-ylmethyl)carbamoyl]amino}phenyl)-N-[2-(pyrrolidin-1-yl)ethyl]-1H-pyrazole-3-carboxamide] |  |  |
|  | O=C(NCc1cccnc1)Nc1ccc(-n2cc(CCN3CCOCC3)c3ccccc32)cc1 [Compound 100, 1-(4-{3-[2-(Morpholin-4-yl)ethyl]-1H-indol-1-yl}phenyl)-3-(pyridin-3-ylmethyl)urea] |  | < 100 nM |
| ~2 nM | O=C(NCc1cccnc1)Nc1ccc(-n2nc(C(=O)NCCN3CCCC3)c3ccccc32)cc1 [Compound 6, 1-(4-{[(Pyridin-3-ylmethyl)carbamoyl]amino}phenyl)-N-[2-(pyrrolidin-1-yl)ethyl]-1H-indazole-3-carboxamide] | ~18 nM |  |
|  | CC(C)N(CCc1cn(-c2ccc(/C=C/C(=O)NCc3cccnc3)cc2)c2ccccc12)C(C)C [Compound 163] |  | < 100 nM |
|  | O=C(NCc1cccnc1)Nc1ccc(-n2cc(C3CCN(C4CCCC4)CC3)c3ccccc32)cc1 [Compound 110, 1-{4-[3-(1-Cyclopentyl-piperidin-4-yl)-1H-indol-1-yl]phenyl}-3-(pyridin-3-ylmethyl)urea] |  | < 100 nM |
|  | CC(=O)N1CCC(n2cc(C(=O)CCCCNC(=O)NCc3cccnc3)c3ccccc32)CC1 [Compound 58, 1-{5-[1-(1-Acetylpiperidin-4-yl)-1H-indol-3-yl]-5-oxo-pentyl}-3-(pyridin-3-ylmethyl)urea] |  | ≥ 100 nM |
|  | COc1cccc(-c2cn(-c3ccc(NC(=O)NCc4cccnc4)cc3)nc2C(=O)NCCCN2CCCCC2)c1 [Compound 54, 4-(3-Methoxyphenyl)-N-[3-(piperidin-1-yl)propyl]-1-(4-{[(pyridin-3-ylmethyl)carbamoyl]ami-no}phenyl)-1H-pyrazole-3-carboxamide] |  | < 100 nM |
|  | O=C(NCCCCn1cc(C(=O)N2CCC(N3CCCCC3)CC2)c2ccccc21)NCc1cccnc1 [Compound 57, 1-{4-[3-(1,4′-Bipiperidin-1′-yl-carbonyl)-1H-indol-1-yl]butyl}-3-(pyridin-3-ylmethyl) urea] |  | < 100 nM |
|  | O=C(NCCCCC(=O)c1cn(C2CCNCC2)c2ccccc12)NCc1cccnc1 [Compound 90, 1-{5-Oxo-5-[1-(piperidin-4-yl)-1H-indol-3-yl]pentyl}-3-(pyridin-3-ylmethyl)urea] |  | < 100 nM |
|  | O=C(NCc1ccc(Cl)nc1)Nc1ccc(-n2nc(N3CCN(C4CCCC4)CC3)c3ccccc32)cc1 [Compound 55, 1-[(6-Chloro-pyridin-3-yl)methyl]-3-{4-[3-(4-cyclopentyl-piperazin-1-yl)-1H-indazol-1-yl]phenyl}urea] | ≥ 100 nM |  |
|  | O=C(NCc1cncs1)Nc1ccc(-n2cc(CCN3CCOCC3)c3ccccc32)cc1 [Compound 63, 1-(4-{3-[2-(Morpholin-4-yl)ethyl]-1H-indol-1-yl}phenyl)-3-(1,3-thiazol-5-ylmethyl) urea] | ≥ 100 nM |  |
|  | O=C(NCc1cccnc1)Nc1ccc(-n2cc(-c3nccn3CCN3CCOCC3)c3ccccc32)cc1 [Compound 102, 1-[4-(3-{1-[2-(Morpholin-4-yl)ethyl]-1H-imidazol-2-yl}-1H-indol-1-yl)phenyl]-3-(pyridin-3-ylmethyl)urea] |  | < 100 nM |
|  | O=C(/C=C/c1ccc(-n2nc(C(=O)N3CCC(N4CCCC4)CC3)c3ccccc32)cc1)NCc1cccnc1 [Compound 168, (2E)-N-(Pyridin-3-ylmethyl)-3-[4-(3-{[4-(pyrrolidin-1-yl)piperidin-1-yl]carbonyl}-1H-indazol-1-yl)phenyl]prop-2-enamide] |  | < 100 nM |
|  | O=C(NCc1cccnc1)Nc1ccc(-n2cc(CCN3CCC(F)(F)C3)c3ccccc32)cc1 [Compound 69, 1-(4-{3-[2-(3,3-Difluoropyrrolidin-1-yl)ethyl]-1H-indol-1-yl}phenyl)-3-(pyridin-3-ylmethyl) urea] |  | < 100 nM |
|  | O=C(/C=C/c1ccc(-n2nc(C(=O)N3CCN(C4CCCCC4)CC3)c3ccccc32)cc1)NCc1cccnc1 [Compound 173, (2E)-3-(4-{3-[(4-Cyclohexylpiperazin-1-yl)carbonyl]-1H-indazol-1-yl}phenyl)-N-(pyridin-3-ylmethyl)prop-2-enamide] |  | < 100 nM |
|  | CC(C)(C)OC(=O)N1CCC(n2cc(CCCCCCNC(=O)NCc3cccnc3)c3ccccc32)CC1 [Compound 123, tert-Butyl 4-[3-(6-{[(pyridin-3-ylmethyl)carbamoyl]amino}hexyl)-1H-indol-1-yl]piperidine-1-carboxylate] | ≥ 100 nM |  |
|  | O=C(NCCCCC(=O)c1cn(C2CCN(CCF)CC2)c2ccccc12)NCc1cccnc1 [Compound 39] |  | < 100 nM |
|  | O=C(NCCCCCn1cc(C(=O)N2CCN(C3CCCCC3)CC2)c2ccccc21)NCc1cccnc1 [Compound 116, 1-(5-{3-[(4-Cyclohexyl-piperazin-1-yl)carbonyl]-1H-indol-1-yl}pentyl)-3-(pyridin-3-ylmethyl)urea] |  | < 100 nM |

| Structure (SMILES) | IC50 (Human NAMPT) | IC50 at 72 h ([1]; HCT116 cell cytotoxicity IC50) | IC50 at 72 h [1, 2] |
| --- | --- | --- | --- |
| CC(C(=O)N(C)C)N1CCC2(CC1)CN(c1ccc(NC(=O)NCc3cccnc3)cc1)c1ccccc12 (centres unmarked) [Compound 47, N,N-Dimethyl-2-[1-(4-{[(pyridin-3-ylmethyl)carbamoyl]ami-no}phenyl)-1,2-dihydro-1′H-spiro[indole-3,4′-piperidin]-1′-yl]propanamide] | < 1 nM | < 1 nM | < 100 nM |
